Measured values from patent publication US20070043105A1, “Preventive for cerebal stroke recurrence” (ASTELLAS PHARMA INC., priority 2003, published 2007).

Experiments:
[1] = test system: hypertension cases or CHD-having cases; details: cited from earlier work
[2] = test system: stroke-prone spontaneously hypertensive rats (SHR-SP); assay: Cerebral stroke recurrence-accompanied neurologic symptom score in SHR-SP rats; type: in vivo, rat
Source text: Regarding the neurologic symptom, both the fore-legs and both the hind legs of a test case are checked for the paralysis and the activity depression as the items of the neurologic symptoms thereof, and they are scored depending on the degree of the symptoms. Concretely, according to a reference (European Journal of Pharmacology, 192, 165-167, 1991), they are normal state (score 0), light symptom (score 1), middle symptom (score 2) and heavy symptom (score 3); and the final data of an individual are the total of the scores of these items. The maximum score is 15.
(§1) The dose was 3 and 30 mg/kg, and it was repeatedly orally administered once a day.
(§2) SHR-SP male rats (9-week age when bought, by Nippon SLC) were bred under a constant-temperature and constant-humidity condition. The feed was solid SP feed for breeding SHR-SP rats; and every rat was kept to freely drink tap water as automatically supplied thereto. The body weight of each rat was measured everyday, and the rats were checked for an cerebral stroke attack (Stroke, Vol. 20(9), pp. 1212-1218, 1989; Journal of Pharmacology & Experimental Therapeutics, Vol. 291(2), pp. 569-575, 1999). The cerebral stroke attack in the rats of this line is accompanied by neurologic symptoms such as paralysis or hemiplegia (European Journal of Pharmacology, Vol. 192 (1), pp. 165-167, 1991), and abnormal body weight change such as rapid body weight reduction. The abnormal body weight change may be considered to be caused by the deterred drinking and eating owing to the cerebral stroke attack (Brain Research, Vol. 452 (1-2), pp. 323-328, 1988; Stroke, Vol. 20(8), pp. 1089-1091, 1989; European Journal of Pharmacology, Vol. 192 (1), pp. 165-167, 1991).
The rats were checked for their neurologic symptoms on the day the first stroke occurred and 7 and 14 days later by the modified method of Yamamoto (Brain Research, Vol. 452(1-2), pp. 323-328, 1988; Stroke, Vol. 20(8), pp. 1089-1091, 1989; European Journal of Pharmacology, Vol. 192(1), pp. 165-167, 1991). Both the fore-legs and both the hind legs of the rats were checked for the paralysis and the activity depression as the items of the neurologic symptoms thereof. […] The final data of the individual rat are the total of the scores of these items. The maximum score is 15.
(§3) A Steel test was used to the neurologic symptom and recurrence scores, and a Log-rank test was applied to the survival rate.

[3] = test system: stroke-prone spontaneously hypertensive rats (SHR-SP); assay: Blood pressure, heart beat and total cholesterol level in SHR-SP rats after primary stroke attack; type: in vivo, rat; details: administration groups (3 and 30 mg/kg/day), within 2 weeks after the primary cerebral stroke attack
[4] = test system: stroke-prone spontaneously hypertensive rats (SHR-SP); assay: Survival rate after onset of the stroke in SHR-SP rats; type: in vivo, rat; details: for survival rate: control 3/28 (10.7%)
Experimental: as §1, §2
Vehicle or atorvastatin was orally administered everyday, once a day from day of the first stroke to death.
as §3

eNOS = details: cited from earlier work
[5] = test system: stroke-prone spontaneously hypertensive rats (SHR-SP); assay: Cerebral stroke recurrence score (daily body weight change) after primary stroke attack in SHR-SP rats; type: in vivo, rat; details: vs control
Experimental: as §1, §2, §3

SHR-SP rats = details: administration before attack; cited from earlier work
[6] = 3 mg/kg/day p.o., day 14 after the primary cerebral stroke attack, Steel test
[7] = 30 mg/kg/day p.o., day 7 after the primary cerebral stroke attack
[8] = 30 mg/kg/day p.o., day 14 after the primary cerebral stroke attack, Steel test

Row | Structure (SMILES) | primary preventive effect for cerebral stroke [1] | neurologic symptoms (score) ([2]; 3 mg/kg/day p.o., day 7 after the primary cerebral stroke attack) | neurologic symptoms (score) [2, 6] | level of neurologic symptoms reached ([2]; 30 mg/kg administration group, day 14 after the primary cerebral stroke attack) | neurologic symptoms (score) [2, 7] | neurologic symptoms (score) [2, 8] | diastolic pressure vs control group [3] | heart beat vs control group [3] | mean blood pressure vs control group [3] | systolic pressure vs control group [3] | total cholesterol level vs control group [3] | survival rate ([4]; 3 mg/kg/day p.o., day 35 after the primary cerebral stroke attack (6/29)) | improvement of survival rate vs control, Log-rank test ([4]; 30 mg/kg/day p.o.) | survival rate ([4]; 30 mg/kg/day p.o., day 35 after the primary cerebral stroke attack (8/24)) | eNOS activity (eNOS) | cerebral stroke recurrence symptoms (recurrence score) [5, 6] | cerebral stroke recurrence symptoms (recurrence score) [5, 7] | cerebral stroke recurrence symptoms (recurrence score) [5, 8] | prevention of cerebral stroke attack (SHR-SP rats) | survival rate (SHR-SP rats)
1 | CC(C)c1c(C(=O)Nc2ccccc2)c(-c2ccccc2)c(-c2ccc(F)cc2)n1CC[C@@H](O)C[C@@H](O)CC(=O)O [atorvastatin, (-)-(3R,5R)-7-[2-(4-fluorophenyl)-5-isopropyl-3-phenyl-4-phenylcarbamoyl-1H-pyrrol-1-yl]-3,5-dihydroxyheptanoic acid] | effective for preventing a primary cerebral stroke | improved | significant improvement | restored nearly to the ordinary level | improved | significant improvement | no significant difference | no significant difference | no significant difference | no significant difference | no significant difference | 20.7% | significant difference | 33.3% | increases eNOS activity | significant improvement | improved symptoms | significant improvement |  | 
2 | COCc1c(C(C)C)nc(C(C)C)c(/C=C/[C@@H](O)C[C@@H](O)CC(=O)O)c1-c1ccc(F)cc1 [serivastatin] |  |  |  |  |  |  |  |  |  |  |  |  |  |  |  |  |  |  | effective for prevention of cerebral stroke attack | effective for increasing a survival rate
